Results published in patent US7521254B2, “Quantitative measurements of concentration and solubility using Raman spectroscopy” (Transform Pharmaceuticals, Inc., priority 2004, dated 2009).

Assay: Raman spectroscopic measurement of solute concentration in multi-component solvent mixtures
Format: physicochemical
Conditions: prepared at 10 mg/mL
Protocol: FIGS. 1B and 1C depict calibration spectra for a two-component system (component A and component B) in which the solute from FIG. 1A is homogeneously distributed. FIG. 1B represents a calibration spectrum for single-component A while FIG. 1C represents a calibration spectrum for single-component B. The concentration of both single-component systems is 15 mg/mL. FIG. 1D depicts a Raman spectrum of the two-component system (A and B) with an unknown solute concentration. The ratio of A:B is 1:1 in the unknown sample. FIG. 1E is a representation of the Raman intensities at a particular frequency (v1) in both calibration spectra. A dotted line has been drawn between the calibration intensities and illustrates the expected Raman intensities at frequency v1 due to the solute molecule in mixtures of both components. […] In view of FIG. 1E, the ratio of components in the unknown sample can be used to determine the concentration of solute. […] A solute concentration above 15 mg/mL results in a Raman intensity greater than (IA+IB)/2 while a solute concentration below 15 mg/mL results in a Raman intensity less than (IA+IB)/2. Due to a directly proportional and linear relationship between Raman scattering intensity and concentration, values both above and below 15 mg/mL are easily calculated based on the measured Raman intensity of the unknown (multi-component) sample.
In another embodiment, automated software can be programmed to analyze the data. First, the software identifies the spectral peaks and intensities that are unique to the solute molecule by direct comparison with a solvent only (signature) spectrum. The various single-component (calibration) Raman spectra are then accessed and a calibration matrix is configured and saved from these single-component data. […] The concentration of solute in the multi-component system is calculated using a weighted average determination. For instance, the concentration (C) of a solute in a multi-component system can be calculated by using equation (1), C=a1c1+a2c2+a3c3+ . . . […]

Row | mean value for the concentration (1:1:1 ternary mixtures by volume (Table II), RSD 6.7 percent) [mg/mL] | mean value for the concentration (1:3 binary mixtures of excipients by volume (Table I), two trials, RSD 9.6 percent) [mg/mL] | mean value for the concentration (1:1 binary mixtures by volume (Table IV), RSD 9.7 percent) [mg/mL] | Structure (SMILES)
1 | 9.48 | 10.18 |  | CC(=O)Nc1ccc(O)cc1 [Acetaminophen]
2 |  |  | 10.19 | CC(=O)Oc1ccccc1C(=O)O [Acetylsalicylic acid]
